The values below come from patent publication US10111819B2 (The Procter & Gamble Company, priority 2015, dated 2018).

Broadly, the inhibition is the drop in the measured response relative to a control, in per cent.

Test [1] addresses T1, human TRPV1 receptor (Homo sapiens, UniProt Q8NER1, M315I/T336M).
T1 construct: expressed in transfected cells; host or cells: HEK-293
Kind of test: FLIPR calcium flux, antagonists to CPC activation of TRPV1. It counts as cell-based. The note with it: for Ca count CPC TRPV1 Receptor Antagonist / % inhibition of CPC activation: compound 1 mM (0.04% for extracts); for Ca count CPC TRPV1 Receptor Antagonist: 30 min preincubation, then CPC 100 uM; for inhibition at 1000 µM: read-out: % inhibition of CPC activation; for % inhibition of CPC activation: TRPV1, CPC 100 uM. The protocol:
HEK-293 (human embryonic kidney) cells stably transfected with human TRPV1 receptor (SEQ ID NO. 1) were grown in 15 ml growth medium [high glucose DMEM (Dulbecco's Modification of Eagle's Medium) supplemented with 10% FBS (fetal bovine serum)], 100 μg/ml Penicillin/streptomycin, 100 μg/ml G418] in a 75 Cm^2 flask for 3 days at 33° C. in a mammalian cell culture incubator set at 5% CO2. Cells were detached with addition of 10 ml of PBS (phosphate buffered saline) by hand shaking gently. Cells were transferred to a 50 ml tube and centrifuged at 850 rpm for 3 minutes to remove PBS. After centrifugation, a pellet of cells is formed in the bottom of the tube separating them from the supernatant solution. The supernatant was discarded and the cell pellet is suspended in 1 ml of fresh growth medium to which 5 μl (12.5 μg) of Fluo-4 AM (Molecular Probes, Inc.) calcium indicator was added and incubated for 30 min with gentle shaking. Fluo-4 AM is a fluorescent dye used for quantifying cellular Ca^2+ concentrations in the 100 nM to […] range. At the end of the 30 minutes, 45 ml of assay buffer [1×HBSS (Hank's Balanced Salt Solution), 20 mM HEPES (4-(2-Hydroxyethyl)-1-piperazineethanesulfonic acid)] was added to wash cells and the resulting combination is then centrifuged at 850 rpm for 3 minutes to remove excess buffer and Fluo-4 AM calcium indicator; following centrifugation the assay buffer was removed. The pelleted cells were re-suspended in 10 ml assay buffer and 90 μl aliquots (˜50,000 cells) per well delivered to a 96-well assay plate containing compounds (final concentration 1 mM for pure compounds, 0.04% for extracts) or buffer control and incubated at room temperature for 30 minutes. After 30 minutes, the plate was placed into a fluorometric imaging plate reader (FLIPR^TETRA from Molecular Devices) and basal fluorescence recorded (excitation wave length 488 nm and emission wave length 510 nm). The FLIPR assay is an accepted method for detecting changes in intracellular calcium concentration. […] For determining the direct effect of test compounds on TRPV1 receptor, fluorescence was measured immediately after addition of each compound.
A general note: Calcium assays in cells follow changes in intracellular calcium, usually with a dye or a luminescent sensor.

The conditions of test [2]: concentration level where the cooling effect can be clearly recognized; cited from earlier work.
The target in test [3] is T2, human TRPA1 receptor (Homo sapiens, UniProt O75762, K186N/R3C/R58T).
T2 construct: expressed in transfected cells; host or cells: HEK-293
T2 sequence (O75762 whole entry R3C/R58T/K186N): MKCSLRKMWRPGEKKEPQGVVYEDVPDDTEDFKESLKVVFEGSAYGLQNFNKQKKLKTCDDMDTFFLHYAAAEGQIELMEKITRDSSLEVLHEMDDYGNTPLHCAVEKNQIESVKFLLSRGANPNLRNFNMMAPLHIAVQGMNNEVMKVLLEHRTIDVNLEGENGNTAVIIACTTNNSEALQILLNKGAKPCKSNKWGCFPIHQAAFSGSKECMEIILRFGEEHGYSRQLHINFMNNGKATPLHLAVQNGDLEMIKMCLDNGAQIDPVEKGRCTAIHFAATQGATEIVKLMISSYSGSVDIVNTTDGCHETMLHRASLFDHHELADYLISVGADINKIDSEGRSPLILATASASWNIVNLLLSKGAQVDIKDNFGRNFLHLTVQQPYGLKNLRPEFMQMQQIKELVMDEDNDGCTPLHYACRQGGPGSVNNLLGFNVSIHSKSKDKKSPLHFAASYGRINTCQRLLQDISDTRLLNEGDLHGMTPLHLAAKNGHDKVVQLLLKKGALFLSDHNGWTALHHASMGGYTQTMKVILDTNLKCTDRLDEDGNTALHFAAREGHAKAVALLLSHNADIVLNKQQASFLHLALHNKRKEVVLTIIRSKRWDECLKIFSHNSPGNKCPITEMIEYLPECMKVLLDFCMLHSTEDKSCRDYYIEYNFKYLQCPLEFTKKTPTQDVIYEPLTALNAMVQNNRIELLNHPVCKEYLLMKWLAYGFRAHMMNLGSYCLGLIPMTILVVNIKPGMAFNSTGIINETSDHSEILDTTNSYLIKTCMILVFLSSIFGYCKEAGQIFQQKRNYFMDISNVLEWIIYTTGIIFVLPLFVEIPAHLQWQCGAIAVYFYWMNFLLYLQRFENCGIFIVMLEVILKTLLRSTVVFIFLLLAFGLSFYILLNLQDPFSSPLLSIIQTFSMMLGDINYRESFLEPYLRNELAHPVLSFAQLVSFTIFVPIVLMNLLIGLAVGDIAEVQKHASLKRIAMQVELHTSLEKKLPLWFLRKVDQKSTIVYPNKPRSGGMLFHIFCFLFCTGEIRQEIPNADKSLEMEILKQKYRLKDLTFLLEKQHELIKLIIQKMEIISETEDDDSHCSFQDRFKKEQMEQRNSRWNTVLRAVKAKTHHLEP
The experiment in a line: FLIPR calcium flux, antagonists to CPC activation of TRPA1. The conditions noted are these: for % inhibition of CPC activation: TRPA1, CPC 100 uM; for % inhibition of CPC activation / Ca count CPC TRPA1 Receptor Antagonist: compound 1 mM (0.04% for extracts); for Ca count CPC TRPA1 Receptor Antagonist: 30 min preincubation, then CPC 100 uM; for inhibition at 1000 µM: read-out: % inhibition of CPC activation. The format is cell-based. On the procedure:
HEK-293 (human embryonic kidney) cells stably transfected with human TRPA1 receptor (SEQ ID NO. 2) were grown in 15 ml growth medium [high glucose DMEM (Dulbecco's Modification of Eagle's Medium) supplemented with 10% FBS (fetal bovine serum)], 100 μg/ml Penicillin/streptomycin, 100 μg/ml G418] in a 75 Cm^2 flask for 3 days at 37° C. in a mammalian cell culture incubator set at 5% CO2. Cells were detached with addition of 10 ml of PBS (phosphate buffered saline) by gentle hand shaking. Cells were transferred to a 50 ml tube and centrifuged at 850 rpm for 3 minutes to remove PBS. After centrifugation, a pellet of cells was formed in the bottom of the tube separating them from the supernatant solution. The supernatant was discarded and the cell pellet suspended in 1 ml of fresh growth medium to which 5 μl (12.5 μg) of Fluo-4 AM (Molecular Probes, Inc., Grand Island, N.Y.) calcium indicator was added and incubated for 30 min with gentle shaking. Fluo-4 AM is a fluorescent dye used for quantifying cellular Ca^2+ concentrations in the 100 nM to 1 microM range. At the end of the 30 minutes, 45 ml of assay buffer [1×HBSS (Hank's Balanced Salt Solution), 20 mM HEPES (4-(2-Hydroxyethyl)-1-piperazineethanesulfonic acid)] was added to wash cells and the resulting combination was then centrifuged at 850 rpm for 3 minutes to remove excess buffer and Fluo-4 AM calcium indicator; following centrifugation the assay buffer was removed. The pellet cells were re-suspended in 10 ml assay buffer and 90 μl aliquots (˜50,000 cells) per well delivered to a 96-well assay plate containing compounds (final concentration 1 mM for pure compounds, 0.04% for extracts) or buffer control and incubated at room temperature for 30 minutes. After 30 minutes, the plate was placed into a fluorometric imaging plate reader (FLIPR^TETRA from Molecular Devices, Sunnyvale, Calif.) and basal fluorescence recorded (excitation wave length 488 nm and emission wave length 510 nm). The FLIPR assay is an accepted method for detecting changes in intracellular calcium concentration. […] For determining the direct effect of test compounds on TRPA1 receptor, fluorescence was measured immediately after addition of each compound.

T1 sequence (Q8NER1 whole entry M315I/T336M): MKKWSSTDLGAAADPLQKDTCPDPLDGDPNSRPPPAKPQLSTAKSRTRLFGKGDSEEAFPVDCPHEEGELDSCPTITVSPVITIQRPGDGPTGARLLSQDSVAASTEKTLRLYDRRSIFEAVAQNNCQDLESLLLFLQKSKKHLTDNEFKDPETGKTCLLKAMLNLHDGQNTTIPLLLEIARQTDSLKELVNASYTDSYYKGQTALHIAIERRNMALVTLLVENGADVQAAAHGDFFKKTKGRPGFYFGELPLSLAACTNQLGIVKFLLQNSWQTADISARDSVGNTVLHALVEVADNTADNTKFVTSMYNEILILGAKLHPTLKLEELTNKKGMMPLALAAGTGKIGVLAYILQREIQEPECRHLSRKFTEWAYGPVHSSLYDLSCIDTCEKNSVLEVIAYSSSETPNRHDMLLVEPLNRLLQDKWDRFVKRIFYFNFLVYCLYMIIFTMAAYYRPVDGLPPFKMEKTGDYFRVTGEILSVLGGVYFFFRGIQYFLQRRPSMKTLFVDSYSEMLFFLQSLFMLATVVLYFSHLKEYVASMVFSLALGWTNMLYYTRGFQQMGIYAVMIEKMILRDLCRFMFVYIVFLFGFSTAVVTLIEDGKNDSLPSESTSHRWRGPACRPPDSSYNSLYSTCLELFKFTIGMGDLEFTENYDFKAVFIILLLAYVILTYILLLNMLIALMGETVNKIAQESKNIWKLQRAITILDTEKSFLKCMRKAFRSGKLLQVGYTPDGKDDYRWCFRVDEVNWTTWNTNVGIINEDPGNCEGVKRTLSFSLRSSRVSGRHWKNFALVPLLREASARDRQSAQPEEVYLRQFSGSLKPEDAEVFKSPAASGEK

Take `Nc1ccccc1C(=O)Oc1ccc2ccccc2c1` [2-Aminobenzoic Acid Naphthalen-2-Yl Ester]: in test [1], the “Ca count CPC TRPV1 Receptor Antagonist” value is on record as 4172 count and the inhibition at 1000 µM came to 38.3%.
For `CCCCCC=CC(=O)O` [2-Octenoic Acid, Predominantly Trans, 2-Octenoic Acid], in test [1], the “Ca count CPC TRPV1 Receptor Antagonist” value stood at 2878 count and the inhibition at 1000 µM came to 78.3%.
For `CCCCCC=CC(C)=O` [3-Nonen-2-one], in that order: 3470 count and 43.6%.
The corresponding values for `CC(=O)CCc1ccc(O)cc1` [4-(4-Hydroxy-phenyl)-butan-2-one] are 1127 count and 67.8%.
The corresponding values for `COc1ccc(CCC(C)=O)cc1` [4-(4-Methoxyphenyl)-2-butanone] are 1218 count and 55.2%.
For the compound `CCCC(=O)OC(C)(C)Cc1ccccc1` [Alpha,Alpha-Dimethylphenethyl Butyrate], in test [1], the “Ca count CPC TRPV1 Receptor Antagonist” value amounted to 4246 count and the inhibition at 1000 µM turned out to be 45.2%.
For `CCCCOC(=O)C(C)C` [Butyl Isobutyrate], in that order: 1504 count and 57%.
As to `CCCCCCCCCCOC(C)=O` [Decyl Acetate], in test [1], the “Ca count CPC TRPV1 Receptor Antagonist” value came to 2079 count and the inhibition at 1000 µM is 60.2%.
`CC(C)[C@@H]1CC[C@@H](C)C[C@H]1O` [L-menthol]: the cooling threshold result in test [2] is on record as “about 800 ppb”.
Consider `O=S(=O)([O-])[O-].[Mg+2]` [Magnesium sulfate], for which the “% inhibition of CPC activation” value in test [1] is 88.1%.
With `Cc1occc(=O)c1OC(=O)C(C)C` [Maltyl Isobutyrate], in test [3], the “% inhibition of CPC activation” value is reported as 46.3% and the “Ca count CPC TRPA1 Receptor Antagonist” value came out at 2882 count.
As for `COC(=O)CCCc1ccccc1` [Methyl 4-Phenylbutyrate], in test [1], the “Ca count CPC TRPV1 Receptor Antagonist” value was determined as 3469 count and the inhibition at 1000 µM came out at 43.6%.
As to `CC1(C)C2CC=C(CO)C1C2` (centres unmarked) [Myrtenol], in test [3], the “% inhibition of CPC activation” value worked out at 86.04% and the “Ca count CPC TRPA1 Receptor Antagonist” value is 440 count. Moreover, the “% inhibition of CPC activation” value in test [3] (listed as myrtenol) was 86%.
Turning to `CC1CCC(C(C)(C)S)C(=O)C1` (centres unmarked) [P-mentha-8-thiol-3-one], in test [3], the “% inhibition of CPC activation” value turned out to be 48.3% and the “Ca count CPC TRPA1 Receptor Antagonist” value is 3513 count.
With `CC(C)[C@@H]1CC[C@@H](C)C[C@@H]1O` [Rinse 1-neomenthol, 1-neomenthol], in test [2], the cooling threshold result was “about 3,000 ppb”.
In the case of `O=C(OC[C@H]1O[C@@H](OC(=O)c2cc(O)c(O)c(OC(=O)c3cc(O)c(O)c(O)c3)c2)[C@H](OC(=O)c2cc(O)c(O)c(OC(=O)c3cc(O)c(O)c(O)c3)c2)[C@@H](OC(=O)c2cc(O)c(O)c(OC(=O)c3cc(O)c(O)c(O)c3)c2)[C@@H]1OC(=O)c1cc(O)c(O)c(OC(=O)c2cc(O)c(O)c(O)c2)c1)c1cc(O)c(O)c(OC(=O)c2cc(O)c(O)c(O)c2)c1` [Tannic Acid], in test [3], the “Ca count CPC TRPA1 Receptor Antagonist” value amounted to 321 count and the inhibition at 1000 µM came to 95.3%.
As for `NCCc1ccc(O)cc1` [Uteramine], in test [1], the “Ca count CPC TRPV1 Receptor Antagonist” value is on record as 1093 count and the inhibition at 1000 µM was found to be 68.8%.
As to `CC(=O)[O-].CC(=O)[O-].[Zn+2]` [Zinc Acetate], in test [1], the “% inhibition of CPC activation” value was determined as 89.8% and the “Ca count CPC TRPV1 Receptor Antagonist” value is listed as 1351 count.
On to `CC1=CCCC(C)(C)C1/C=C/C(C)O` (stereo not drawn) [alpha-Ionol], for which, in test [1], the “% inhibition of CPC activation” value came out at 66.2% and the “Ca count CPC TRPV1 Receptor Antagonist” value is on record as 2620 count.
As for `OC[C@H]1O[C@@H]2O[C@H]3[C@H](O)[C@@H](O)[C@@H](O[C@H]4[C@H](O)[C@@H](O)[C@@H](O[C@H]5[C@H](O)[C@@H](O)[C@@H](O[C@H]6[C@H](O)[C@@H](O)[C@@H](O[C@H]7[C@H](O)[C@@H](O)[C@@H](O[C@H]8[C@H](O)[C@@H](O)[C@@H](O[C@H]1[C@H](O)[C@H]2O)O[C@@H]8CO)O[C@@H]7CO)O[C@@H]6CO)O[C@@H]5CO)O[C@@H]4CO)O[C@@H]3CO` [beta-Cyclodextrin], in test [3], the “Ca count CPC TRPA1 Receptor Antagonist” value came out at 2324 count and the inhibition at 1000 µM turned out to be 56.7%.
For the compound `CC1=C(/C=C/C(C)O)C(C)(C)CCC1` (stereo not drawn) [beta-Ionol], in test [1], the “% inhibition of CPC activation” value came to 65.9% and the “Ca count CPC TRPV1 Receptor Antagonist” value turned out to be 1265 count.
Regarding `CC(C)[C@@H]1CC[C@@H](C)C[C@@H]1O` [d-neomenthol], the cooling threshold result in test [2] is “about 25,000 ppb”.
For `CCCOC(=O)c1cc(O)c(O)c(O)c1` [n-propyl gallate], in test [3], the “Ca count CPC TRPA1 Receptor Antagonist” value is given as 1844 count and the inhibition at 1000 µM came to 65.6%.
With Manganese Citrate, in test [3], the “% inhibition of CPC activation” value amounted to 52.2% and the “Ca count CPC TRPA1 Receptor Antagonist” value turned out to be 4553 count.
Manganese Gluconate: in test [3], the “% inhibition of CPC activation” value amounted to 67.2% and the “Ca count CPC TRPA1 Receptor Antagonist” value came to 2234 count.
